The results in this text go back to EP0802730B1, “PESTICIDAL COMPOUNDS” (BTG INTERNATIONAL LIMITED, priority 1995, dated 1996).

≈ marks a conversion by molar mass, not a printed value. Where two headings read alike, the source gives them in different places. Marks after values point to notes of the source that are not given here.

What all share (format): in vivo
Series [1] deals with Mustard beetles (PC) (Phaedon cochleariae Fab). As to conditions: for PC LD50 (µg/insect): Tables 10, 13, 14; for PC LD50 (µg/insect) / PC (LD50): NA = lack of detectable activity; for PC (LD50): 1 µl acetone drop applied ventrally to adults, kill at 48 hours. As to the method:
A one microlitre drop of an acetone solution of the test compound was applied ventrally to adult mustard beetles using a micro drop applicator. The treated insects were maintained for 48 hours after which time kill was assessed. Two replicates each of 20 to 25 mustard beetles were used at each dose level and 5 dose levels were treated comparably. LD50 values were calculated as for houseflies.

Series [2] concerns Mites (TU) (Tetranychus urticae), susceptible strain (GSS). Put plainly: Mite immersion test, susceptible strain GSS. As to the method: 25 adult female mites were immersed in 35 µl of a solution of the test compound in a 1:4 acetone-water mixture for 30 seconds. The treated insects were maintained at 21° ± 2°C and kill was assessed 72 hours after treatment. […] Three replicates of 25 mites each were used at each dose rate and 5 or 6 dose rates were used per compound under test. LC50 values were calculated in ppm of the solution of the test compound per insect. The test was carried out using a susceptible strain of mites (GSS) supplied by Schering, AG, Berlin.

The test system of series [3] is Whitefly (BT) (Bemisia tabaci), susceptible strain (SUD-S). The series can be described thus: Whitefly residual film vial test, susceptible strain SUD-S. The note with it: 48 h. As to the method:
Acetone solutions (0.100 ml) of the test compounds were placed in 10 ml glass vials and evaporated with rotation to deposit a film of the compound. Thirty adult whiteflies were placed inside the vial, then after 60 minutes, the treated insects were transferred onto untreated cotton leaf discs which were kept moist on a bed of agar gel. The temperature was maintained at 25°C and mortality assessed after 48 hours. Three replicates were used at each of 5 to 7 dose levels per compound.

Series [4] concerns Houseflies (MD) (Musca domestica). As to conditions: for MD LD50 (µg/insect): Tables 10, 13, 14, NA = lack of detectable activity; for MD (LD50): topical 1 µl drop in acetone on female flies, kill assessed 24 and 48 hours. The method, then: Female flies were treated on the thorax with a one microlitre drop of test compound dissolved in acetone. Two replicates of 15 flies were used at each dose rate and 6 dose rates were used per compound under test. After treatment, the flies were maintained at a temperature of 20° ± 1°C and kill was assessed 24 and 48 hours after treatment. LD50 values were calculated in micrograms of test compound per fly (see Sawicki et al., Bulletin of the World Health Organisation, 35, 893 (1966) and Sawicki et al., Entomologia and Exp. Appli 10, 253, (1967).

Setting [5] is: 72 h, Tables 10, 13, 14, susceptible strain, NA = lack of detectable activity, read-out: TU LC50 (ppm/insect).
The mark [6] stands for this setting: Tables 10, 13, 14, susceptible strain, NA = lack of detectable activity, read-out: BT LC50 (ppm/insect).
Setting [7] is: ppm solution of test compound, 30 seconds immersion, kill at 72 hours, read-out: TU(GSS) (LC50).

As for `CCCC1=C(O)C(=O)c2ccccc2C1=O` [-(CH2)2CH3, reference compound], in series [1], the “PC LD50 (µg/insect)” value is recorded as “c10 µg/insect”. Also, the LC50 in series [2] (setting [5]) was about 1000 µg/mL (≈ 4620 µM); in series [3] (setting [6]), 80 µg/mL (≈ 370 µM).
Take `CCCCC1=C(O)C(=O)c2ccccc2C1=O` [-(CH2)3CH3, reference compound]: the “MD LD50 (µg/insect)” value in series [4] is recorded as “c10 µg/insect”. Further, in series [1], the “PC LD50 (µg/insect)” value is “c5 µg/insect”. Moreover, the LC50 was determined as 65 µg/mL (≈ 282 µM) in series [2] (setting [5]) and 13 µg/mL (≈ 56.5 µM) in series [3] (setting [6]).
On to `CCCCCC1=C(O)C(=O)c2ccccc2C1=O` [-(CH2)4CH3, reference compound], for which the “PC LD50 (µg/insect)” value in series [1] is “c7 µg/insect”. The LC50 in series [2] (setting [5]) came to 16 µg/mL (≈ 65.5 µM); in series [3] (setting [6]), 17 µg/mL (≈ 69.6 µM).
As to `CCCCCCCCC1=C(O)C(=O)c2ccccc2C1=O` [-(CH2)7CH3, reference compound], in series [4], the “MD LD50 (µg/insect)” value worked out at 1.9 µg/insect. Moreover, the “PC LD50 (µg/insect)” value in series [1] is 0.78 µg/insect. Moreover, the figures for the LC50 in series [2] (setting [5]) and in series [3] (setting [6]) were about 1000 µg/mL (≈ 3490 µM) and 19 µg/mL (≈ 66.3 µM), respectively.
`CCCCCCCCCCC1=C(O)C(=O)c2ccccc2C1=O` [-(CH2)9CH3, reference compound]: the “PC LD50 (µg/insect)” value in series [1] was found to be 1.9 µg/insect. Further, the LC50 in series [2] (setting [5]) is 5.5 µg/mL (≈ 17.5 µM); in series [3] (setting [6]), over 100 µg/mL.
`CCCCCCCCCCCC1=C(O)C(=O)c2ccccc2C1=O` [-(CH2)10CH3, reference compound]: in series [1], the “PC LD50 (µg/insect)” value was “c0.4 µg/insect”. The values for the LC50 in series [2] (setting [5]) and in series [3] (setting [6]) were 1.4 µg/mL (≈ 4.26 µM) and over 100 µg/mL, respectively.
Turning to `CCCCCCCCCCCCCCC1=C(O)C(=O)c2ccccc2C1=O` [-(CH2)13CH3, reference compound], in series [2] (setting [5]), the LC50 came to 1.3 µg/mL (≈ 3.51 µM).
Take `C=CC(C)(C)C1=C(OC(=O)CF)C(=O)c2ccccc2C1=O` [Example 9]: in series [1], the “PC (LD50)” value is 0.41 µg/insect. In addition, the LC50 in series [2] (72 h, read-out: TU(GSS) (LC50)) stood at 140 µg/mL (≈ 463 µM); in series [3] (read-out: BT(SUD-S) (LC50)), 13.4 µg/mL (≈ 44.3 µM).
Consider `C=CC(C)(C)C1=C(OC(=O)c2ccccc2)C(=O)c2ccccc2C1=O` [Example 11], for which the LC50 in series [2] (setting [7]) was about 50 µg/mL (≈ 144 µM).
Turning to `C=CC(C)(C)C1=C(OC)C(=O)c2ccccc2C1=O` [Example 12, 2-(1,1-dimethylprop-2-enyl)-3-methoxy-naphthalene-1,4-dione], in series [4], the “MD (LD50)” value was over 20 µg/insect. The “PC (LD50)” value in series [1] is listed as “c. 12.0 µg/insect”.
As to `C=CC(C)(C)C1=C(O)C(OC)(OC)c2ccccc2C1=O` [Example 14, 1,1-dimethoxy-2-hydroxy-3-(1,1-dimethylprop-2-enyl)-naphthalene-4-one], the “MD (LD50)” value in series [4] is listed as “c. 2.5 µg/insect”. The “PC (LD50)” value in series [1] is “c. 6.0 µg/insect”. Besides, in series [2] (setting [7]), the LC50 is about 800 µg/mL (≈ 2770 µM).
On to `C=CC(C)(C)C1=C(O)C(=NOC)c2ccccc2C1=O` [Example 15], for which the “PC % Kill at 20 µg/insect” value in series [1] (mustard beetle, in vivo, topical or ocular, 48 h) is 35% *. Besides, the mortality at 1000 ppm in series [3] (read-out: BT(SUD-S) % Kill at 1000 ppm solution of test compound) was 97%.
Turning to `CCCC(C)(C)C1=C(OC(=O)CC)C(=O)c2ccccc2C1=O` [Example 17], in series [4], the “MD (LD50)” value is 14 µg/insect. Moreover, the LC50 in series [2] (setting [7]) is 50 µg/mL (≈ 159 µM).
Take `CC(C)(C)CC1=C(O)C(=O)c2ccccc2C1=O` [Example 35, 2-(2,2-dimethylpropyl)-3-hydroxy-naphthalene-1,4-dione]: the “MD LD50 (µg/insect)” value in series [4] was 1.2 µg/insect. Also, the “PC LD50 (µg/insect)” value in series [1] is listed as 4.6 µg/insect. The LC50 in series [3] (setting [6]) is about 12 µg/mL (≈ 49.1 µM).
Consider `CC(C)(C)C=CC1=C(O)C(=O)c2ccccc2C1=O` [Example 42, 2-(3,3-dimethyl-but-1-enyl)-3-hydroxy-naphthalene-1,4-dione], for which the “PC LD50 (µg/insect)” value in series [1] amounted to 3.6 µg/insect. For the same compound, the results for the LC50 in series [2] (setting [5]) and in series [3] (setting [6]) were about 100 µg/mL (≈ 390 µM) and 17 µg/mL (≈ 66.3 µM), respectively.
As to `C=CC(C)(C)CCC1=C(O)C(=O)c2ccccc2C1=O` [Example 50], the LC50 in series [2] (setting [5]) was 6.5 µg/mL (≈ 24 µM); in series [3] (setting [6]) it was 16 µg/mL (≈ 59.2 µM).
